# Experimental data taken from patent US20180049996A1, “THERAPEUTIC AGENT FOR CHRONIC RESPIRATORY DISEASE AND COMPOSITION FOR INHIBITING CARDIAC FIBROSIS” (NIPPON HYPOX LABORATORIES INCORPORATED, priority 2015, published 2018).
# Experiments:
# [1] = tested on: Reactive oxygen species (ROS); assay: Reactive oxygen species (ROS) in BAL cell fluid, COPD model; format: in vivo, C57BL/6N mice; conditions: HTHQ 10 and 20 mg/kg/day oral; tobacco smoke 10 days + LPS; compared to COPD group
# Description: 6 week old male SPF C57BL/6N mice, 20 to 25 g of body weight, were purchased from CORETEC INC. (South Korea).
# The tests were conducted as follows. The mice in the COPD (chronic obstructive pulmonary disease) model group of the test groups were exposed to tobacco smoke for 1 hour per day (8 cigarettes/day) for 10 days and LPS (5 μg/50 μL/mouse) was intranasally administered to the mice on day 8 after the start of the tests. […]
# The mice in the test groups were euthanized 72 hours after the LPS administration and the mice in the normal control group were euthanized on day 11 after the start of the tests by intraperitoneal injection of pentobarbital (Hanrimu pharmaceutical, South Korea) at 50 mg/kg and then the bronchi were excised. […] After preparing slide samples from 100 μL of BAL cell fluid using Cytospin (4° C., 1000 rpm×5 min), the cell numbers of inflammatory cells (neutrophil, macrophages) present in the BAL fluid were counted using a Diff-Quik stain kit.
# Reactive oxygen species (ROS) amounts in BAL cell fluid were measured. […] Reactive oxygen species (ROS) amounts within cells were measured at an excitation wavelength of 485 nm and a fluorescence wavelength of 530 nm using a fluorescence plate analyzer (a product from PerkinElmer, Inc.).
# IL-5 = IL-5 level in BAL fluid (ELISA), ovalbumin asthma model; format: in vivo, BALB/c female mice; conditions: HTHQ 20 and 40 mg/kg/day oral; compared to OVA group
# Description: 6 week old BALB/c female mice were purchased and the mice were divided into 5 groups with 5 animals per group shown in Table 3 below after habituation breeding of about 2 weeks.
# The test was conducted on the schedule of sensitization, causing diseases and administration of test materials shown in FIG. 12. “IP” in FIG. 12 refers to ovalbumin sensitization treatment by the intraperitoneal administration of ovalbumin/aluminum hydroxide, and “IH” refers to inhalation exposure treatment of ovalbumin, and “PO” refers to the administration of the test materials. […]
# All mice were euthanized by intraperitoneal injection of pentobarbital (Hanrimu pharmaceutical, South Korea) at 50 mg/kg and the bronchi were excised on day 25 of the test. […] After preparing slide samples from 100 μL of BAL cell fluid using Cytospin (4° C., 1000 rpm×5 min), the cell numbers of inflammatory cells (eosinophils, macrophages, lymphocytes and neutrophils) present in the BAL fluid were counted using a Diff-Quik stain kit.
# The supernatant of the BAL fluid stored was taken out of the super-cryostat and IL-4, IL-5 and IL-13 levels were measured as the pro-inflammatory cytokine contents in the supernatant of the BAL fluid. A quantitative ELISA kit (a product from R&D systems) and a microplate reader (a product from Bio-Rad Laboratories, Inc.) were used for the measurement and the measurement wavelength was 450 nm.
structure (smiles),measurement,setting,value
"CCCCCCOc1cc(C)c(O)c(C)c1C [HTHQ, 2,3,5-trimethylhydroquinone-1-hexyl ether]",amount of reactive oxygen species (ROS) in BAL cell fluid,[1],effectively reduced
same,IL-5 content in BAL fluid,IL-5,significantly reduced
